Test results as given in patent US20260183295A1, “METHODS AND COMPOSITIONS FOR TREATING CANCER” (Onconova Therapeutics, Inc., priority 2022, published 2026).

Legend:
MDA-MB-231 cells [1] = test: Wound healing assay (24 Hour Migration Assay); assay type: cell-based; details: MDA-MB-231, 1.0 μM and 10.0 μM
Protocol: (§1) A cell-free area was created in a confluent monolayer by physical exclusion or by removing the cells from the area through mechanical, thermal or chemical damage. The exposure to the cell-free area induced the cells to migrate into the gap. The rate of gap closure was measured and plotted.

Hs578t cells = test: Wound healing assay (24 Hour Migration Assay); assay type: cell-based; details: 1.0 μM and 10.0 μM
Protocol: as §1

GSK3B [2] = biological target: T1, GSK3B (Homo sapiens, UniProt P49841); test: CETSA-MS, MDA-MB-231 cell lysates and intact cells; assay type: cell-based; details: present in both MDA-MB-231 cell lysates and intact cells
T1 construct: endogenous in cells; host or cells: MDA-MB-231
Protocol: (§2) Following treatment, cell lysates were thermally treated in a thermal gradient profile across a temperature range. Following the thermal shift, cell lysates were spun by centrifuge to pellet aggregate protein and the supernatant withdrawn. The supernatant was then denatured in buffer and heated to denature, reduce, and alkylate the supernatant proteins. Following heating and cooling to room temperature, cold acetone was added to the supernatant samples and proteins precipitated.
(§3) TNBC MDA-MB-231 cells were grown at 37° C. in 5% CO2 and suspended in warm media and split into 4 equal volumes. […] Cells were incubated and then pelleted. Following pelleting, the cells were washed, resuspended, and heated in a thermal gradient. Following heating, the samples were flash frozen and lysed in lysis buffer, agitated by vortex, and sonicated prior to centrifugation. The supernatant was collected and denaturation buffer added. Cold acetone was then added to the cell samples, and protein collected by centrifugation. Pellets were then washed twice with cold acetone and the washed pellets prior to labeling.
(§4) The intact cell protein samples and lysate protein samples were then digested and labeled for mass spectrometry analysis according to the manufacturer's recommended protocols. Digested and labeled protein samples were analyzed by mass spectrometry proteomic analysis and the resulting protein targets were analyzed and plotted.

GSK3A [3] = biological target: T2, GSK3A (Homo sapiens, UniProt P49840); test: CETSA-MS, MDA-MB-231 cell lysates and intact cells; assay type: cell-based; details: present in both MDA-MB-231 cell lysates and intact cells
T2 construct: endogenous in cells; host or cells: MDA-MB-231
Protocol: as §2, §3, §4

BMP2K = biological target: T3, BMP2K (Homo sapiens, UniProt Q9NSY1); test: CETSA-MS, MDA-MB-231 cell lysates and intact cells; assay type: cell-based; details: present in both MDA-MB-231 cell lysates and intact cells
T3 construct: endogenous in cells; host or cells: MDA-MB-231
Protocol: as §2, §3, §4

AAK1 [4] = biological target: T4, AAK1 (Homo sapiens, UniProt Q2M2I8); test: CETSA-MS, MDA-MB-231 cell lysates and intact cells; assay type: cell-based; details: present in both MDA-MB-231 cell lysates and intact cells
T4 construct: endogenous in cells; host or cells: MDA-MB-231
Protocol: as §2, §3, §4

CHEK1 = biological target: T5, CHEK1 (Homo sapiens, UniProt O14757); test: CETSA-MS, MDA-MB-231 cell lysates and intact cells; assay type: cell-based; details: present in both MDA-MB-231 cell lysates and intact cells
T5 construct: endogenous in cells; host or cells: MDA-MB-231
T5 sequence (O14757 1-476): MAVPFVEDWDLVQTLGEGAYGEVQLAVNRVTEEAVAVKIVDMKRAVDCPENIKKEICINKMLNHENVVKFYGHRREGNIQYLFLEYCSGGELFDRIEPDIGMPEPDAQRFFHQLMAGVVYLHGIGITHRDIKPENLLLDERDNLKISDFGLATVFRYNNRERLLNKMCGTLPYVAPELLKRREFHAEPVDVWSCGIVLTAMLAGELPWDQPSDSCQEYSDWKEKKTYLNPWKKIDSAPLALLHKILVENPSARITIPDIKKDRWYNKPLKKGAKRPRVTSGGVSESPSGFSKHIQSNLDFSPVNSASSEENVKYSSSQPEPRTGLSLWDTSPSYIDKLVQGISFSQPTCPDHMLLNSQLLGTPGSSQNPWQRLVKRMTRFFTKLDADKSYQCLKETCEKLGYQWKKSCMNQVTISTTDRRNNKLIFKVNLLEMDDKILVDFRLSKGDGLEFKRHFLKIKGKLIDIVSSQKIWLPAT
Protocol: as §2, §3, §4

Akt pSer473 = test: Western blot, MDA-MB-231 cells, 24 hours; assay type: cell-based; details: 2.5, 5, 10 μM, versus Comparator 1, 2 and 4
GSK3B [5] = biological target: T1, GSK3B; test: CETSA-MS, MDA-MB-231 cell lysates; assay type: binding; details: 2 μM and 20 μM
Protocol: as §2, §4

FKBP8 = biological target: T6, FKBP8 (Homo sapiens, UniProt Q14318); test: CETSA-MS, MDA-MB-231 cell lysates; assay type: binding; details: 2 μM and 20 μM
T6 construct: endogenous in cells; host or cells: MDA-MB-231
Protocol: as §2, §4

GSK3A [6] = biological target: T2, GSK3A; test: CETSA-MS, MDA-MB-231 cell lysates; assay type: binding; details: 2 μM and 20 μM
Protocol: as §2, §4

SLK = biological target: T7, SLK (Homo sapiens, UniProt Q9H2G2); test: CETSA-MS, MDA-MB-231 cell lysates; assay type: binding; details: 2 μM and 20 μM
T7 construct: endogenous in cells; host or cells: MDA-MB-231
Protocol: as §2, §4

CDK2 = biological target: T8, CDK2 (Homo sapiens, UniProt P24941); test: CETSA-MS, MDA-MB-231 cell lysates; assay type: binding; details: 2 μM and 20 μM
T8 construct: endogenous in cells; host or cells: MDA-MB-231
Protocol: as §2, §4

CDK5 = biological target: T9, CDK5 (Homo sapiens, UniProt Q00535); test: CETSA-MS, MDA-MB-231 cell lysates; assay type: binding; details: 2 μM and 20 μM
T9 construct: endogenous in cells; host or cells: MDA-MB-231
Protocol: as §2, §4

ZCRB1 = biological target: T10, ZCRB1 (Homo sapiens, UniProt Q8TBF4); test: CETSA-MS, MDA-MB-231 cell lysates; assay type: binding; details: 2 μM and 20 μM
T10 construct: endogenous in cells; host or cells: MDA-MB-231
Protocol: as §2, §4

MAPKAPK5 = biological target: T11, MAPKAPK5 (Homo sapiens, UniProt Q8IW41); test: CETSA-MS, MDA-MB-231 cell lysates; assay type: binding; details: 2 μM and 20 μM
T11 construct: endogenous in cells; host or cells: MDA-MB-231
Protocol: as §2, §4

AURKA = biological target: T12, AURKA (Homo sapiens, UniProt O14965); test: CETSA-MS, MDA-MB-231 cell lysates; assay type: binding; details: 2 μM and 20 μM
T12 construct: endogenous in cells; host or cells: MDA-MB-231
Protocol: as §2, §4

CDC42BPB = biological target: T13, CDC42BPB (Homo sapiens, UniProt Q9Y5S2); test: CETSA-MS, MDA-MB-231 cell lysates; assay type: binding; details: 2 μM and 20 μM
T13 construct: endogenous in cells; host or cells: MDA-MB-231
Protocol: as §2, §4

ZNF260 = biological target: T14, ZNF260 (Homo sapiens, UniProt Q3ZCT1); test: CETSA-MS, MDA-MB-231 cell lysates; assay type: binding; details: 2 μM and 20 μM
T14 construct: endogenous in cells; host or cells: MDA-MB-231
Protocol: as §2, §4

PER3 = biological target: T15, PER3 (Homo sapiens, UniProt P56645); test: CETSA-MS, MDA-MB-231 cell lysates; assay type: binding; details: 2 μM and 20 μM
T15 construct: endogenous in cells; host or cells: MDA-MB-231
Protocol: as §2, §4

TBK1 = biological target: T16, TBK1 (Homo sapiens, UniProt Q9UHD2); test: CETSA-MS, MDA-MB-231 cell lysates; assay type: binding; details: 2 μM and 20 μM
T16 construct: endogenous in cells; host or cells: MDA-MB-231
Protocol: as §2, §4

TGFBR2 = biological target: T17, TGFBR2 (Homo sapiens, UniProt P37173); test: CETSA-MS, MDA-MB-231 cell lysates; assay type: binding; details: 2 μM and 20 μM
T17 construct: endogenous in cells; host or cells: MDA-MB-231
Protocol: as §2, §4

AAK1 [7] = biological target: T4, AAK1; test: CETSA-MS, MDA-MB-231 cell lysates; assay type: binding; details: 2 μM and 20 μM
Protocol: as §2, §4

BRAF = test: Phosphoproteomic analysis, MDA-MB-231; assay type: cell-based; details: 5 μM, 2 hours, T-test p<0,05
Protocol: Following treatment, a sample of each of the three treatments was analyzed by Western Blot for expression of phosphoprotein targets.
In addition to western blot analysis, the cell lysate samples underwent phosphoproteomic analysis.

MDA-MB-231 cells [8] = test: Lysotracker Green staining, phase contrast microscopy; assay type: cell-based; details: 5 μM, 2 hours
Protocol: MDA-MB-231 cells were treated with Compound 1 (5 μM) for 2 hours and stained with Lysotracker Green and imaged using phase contrast microscopy to examine the effect of Compound 1 treatment on vacuolization.

MDA-MB-231 cells [9] = test: CytoTox-Glo cytotoxicity assay with or without bafilomycin A1, 2 days; assay type: cell-based; details: 5 μM

T4 sequence (Q2M2I8 whole entry): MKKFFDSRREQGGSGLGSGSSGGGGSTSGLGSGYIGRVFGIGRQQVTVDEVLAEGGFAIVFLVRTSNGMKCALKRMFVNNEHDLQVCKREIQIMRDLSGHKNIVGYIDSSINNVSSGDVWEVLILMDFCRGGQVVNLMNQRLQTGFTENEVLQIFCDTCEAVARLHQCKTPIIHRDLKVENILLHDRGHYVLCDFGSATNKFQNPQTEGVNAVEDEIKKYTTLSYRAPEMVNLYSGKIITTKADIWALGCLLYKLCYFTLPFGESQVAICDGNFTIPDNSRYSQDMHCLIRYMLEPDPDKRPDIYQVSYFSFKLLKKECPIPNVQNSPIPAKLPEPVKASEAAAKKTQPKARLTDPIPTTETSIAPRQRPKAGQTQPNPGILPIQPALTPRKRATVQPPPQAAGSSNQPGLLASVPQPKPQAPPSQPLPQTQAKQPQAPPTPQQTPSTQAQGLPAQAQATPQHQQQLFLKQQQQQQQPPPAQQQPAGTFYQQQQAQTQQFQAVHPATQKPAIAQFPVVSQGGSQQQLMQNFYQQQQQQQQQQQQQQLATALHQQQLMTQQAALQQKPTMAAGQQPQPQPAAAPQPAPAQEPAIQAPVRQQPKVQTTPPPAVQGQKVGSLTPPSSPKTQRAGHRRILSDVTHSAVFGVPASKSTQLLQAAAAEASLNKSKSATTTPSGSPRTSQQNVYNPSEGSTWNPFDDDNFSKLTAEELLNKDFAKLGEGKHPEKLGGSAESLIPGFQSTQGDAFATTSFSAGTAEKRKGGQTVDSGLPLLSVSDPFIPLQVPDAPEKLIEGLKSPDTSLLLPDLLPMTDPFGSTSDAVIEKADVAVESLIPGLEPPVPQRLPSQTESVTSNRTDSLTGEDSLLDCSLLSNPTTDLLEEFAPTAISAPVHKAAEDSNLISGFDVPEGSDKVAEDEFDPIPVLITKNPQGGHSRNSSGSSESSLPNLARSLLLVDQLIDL
T2 sequence (P49840 whole entry): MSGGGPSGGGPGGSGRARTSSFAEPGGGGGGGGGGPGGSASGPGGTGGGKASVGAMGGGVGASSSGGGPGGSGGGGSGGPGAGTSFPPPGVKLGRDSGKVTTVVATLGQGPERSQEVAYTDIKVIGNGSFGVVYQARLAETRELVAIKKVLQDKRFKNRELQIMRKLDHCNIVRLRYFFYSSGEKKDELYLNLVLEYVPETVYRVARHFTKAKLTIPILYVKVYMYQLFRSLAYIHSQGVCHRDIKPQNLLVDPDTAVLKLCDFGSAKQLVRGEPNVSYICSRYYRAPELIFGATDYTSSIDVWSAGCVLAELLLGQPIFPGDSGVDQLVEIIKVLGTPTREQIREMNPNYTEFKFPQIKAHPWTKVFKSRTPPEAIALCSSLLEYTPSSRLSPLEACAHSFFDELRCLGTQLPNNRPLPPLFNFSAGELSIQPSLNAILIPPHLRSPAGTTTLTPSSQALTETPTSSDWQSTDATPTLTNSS
T1 sequence (P49841 whole entry): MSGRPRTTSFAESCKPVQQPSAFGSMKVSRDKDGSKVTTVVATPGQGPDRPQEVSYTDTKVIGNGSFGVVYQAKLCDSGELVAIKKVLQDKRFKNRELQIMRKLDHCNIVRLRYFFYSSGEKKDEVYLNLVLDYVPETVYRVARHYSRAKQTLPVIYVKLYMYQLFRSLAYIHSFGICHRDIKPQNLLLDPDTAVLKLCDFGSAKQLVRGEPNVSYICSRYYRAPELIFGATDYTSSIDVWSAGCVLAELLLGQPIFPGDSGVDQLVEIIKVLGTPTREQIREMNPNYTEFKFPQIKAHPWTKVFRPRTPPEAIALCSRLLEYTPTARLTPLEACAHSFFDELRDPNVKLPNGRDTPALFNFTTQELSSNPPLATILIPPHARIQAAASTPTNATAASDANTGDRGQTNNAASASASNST
T7 sequence (Q9H2G2 whole entry): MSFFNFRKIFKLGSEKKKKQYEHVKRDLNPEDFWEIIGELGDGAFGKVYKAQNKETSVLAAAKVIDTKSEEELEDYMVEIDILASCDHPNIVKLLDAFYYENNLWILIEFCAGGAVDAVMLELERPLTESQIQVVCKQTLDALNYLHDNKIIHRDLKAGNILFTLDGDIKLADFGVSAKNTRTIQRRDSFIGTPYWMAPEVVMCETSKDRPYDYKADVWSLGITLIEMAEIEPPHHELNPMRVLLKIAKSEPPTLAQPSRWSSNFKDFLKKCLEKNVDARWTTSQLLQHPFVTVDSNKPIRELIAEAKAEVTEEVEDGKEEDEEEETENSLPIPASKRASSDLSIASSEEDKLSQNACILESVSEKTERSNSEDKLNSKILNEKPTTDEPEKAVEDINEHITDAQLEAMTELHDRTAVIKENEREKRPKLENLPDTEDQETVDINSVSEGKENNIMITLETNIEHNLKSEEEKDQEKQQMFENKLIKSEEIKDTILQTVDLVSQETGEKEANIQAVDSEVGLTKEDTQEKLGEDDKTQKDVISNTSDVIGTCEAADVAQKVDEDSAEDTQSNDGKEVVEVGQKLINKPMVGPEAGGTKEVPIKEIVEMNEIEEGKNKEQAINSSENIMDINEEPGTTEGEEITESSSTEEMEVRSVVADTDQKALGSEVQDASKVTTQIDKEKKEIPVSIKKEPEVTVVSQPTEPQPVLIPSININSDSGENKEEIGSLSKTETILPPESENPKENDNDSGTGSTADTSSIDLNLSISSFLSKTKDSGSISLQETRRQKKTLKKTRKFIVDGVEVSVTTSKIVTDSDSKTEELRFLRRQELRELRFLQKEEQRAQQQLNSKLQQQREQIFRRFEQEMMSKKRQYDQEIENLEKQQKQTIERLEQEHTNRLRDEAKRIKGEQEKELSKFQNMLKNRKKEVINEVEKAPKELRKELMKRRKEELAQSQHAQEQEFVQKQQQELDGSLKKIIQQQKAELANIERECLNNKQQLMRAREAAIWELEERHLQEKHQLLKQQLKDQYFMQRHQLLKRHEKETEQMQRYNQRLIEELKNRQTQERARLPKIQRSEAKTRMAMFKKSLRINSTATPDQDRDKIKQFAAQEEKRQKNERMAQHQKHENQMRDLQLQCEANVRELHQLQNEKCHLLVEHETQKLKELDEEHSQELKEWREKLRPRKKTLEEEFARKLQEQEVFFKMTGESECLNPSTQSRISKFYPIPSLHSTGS
T11 sequence (Q8IW41 whole entry): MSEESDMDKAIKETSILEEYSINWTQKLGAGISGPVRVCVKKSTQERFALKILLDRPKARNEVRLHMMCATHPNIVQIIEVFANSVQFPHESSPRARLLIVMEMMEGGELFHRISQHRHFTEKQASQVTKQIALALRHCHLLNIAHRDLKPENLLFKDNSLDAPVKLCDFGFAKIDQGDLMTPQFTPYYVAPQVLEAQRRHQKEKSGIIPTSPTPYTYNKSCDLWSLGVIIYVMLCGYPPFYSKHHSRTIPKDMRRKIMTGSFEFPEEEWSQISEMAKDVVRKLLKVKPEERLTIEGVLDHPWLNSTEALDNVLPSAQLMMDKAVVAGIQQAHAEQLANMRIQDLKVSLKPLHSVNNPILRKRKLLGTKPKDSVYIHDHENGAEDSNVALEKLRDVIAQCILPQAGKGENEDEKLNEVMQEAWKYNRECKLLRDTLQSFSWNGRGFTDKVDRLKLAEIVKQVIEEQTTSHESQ
T14 sequence (Q3ZCT1 whole entry): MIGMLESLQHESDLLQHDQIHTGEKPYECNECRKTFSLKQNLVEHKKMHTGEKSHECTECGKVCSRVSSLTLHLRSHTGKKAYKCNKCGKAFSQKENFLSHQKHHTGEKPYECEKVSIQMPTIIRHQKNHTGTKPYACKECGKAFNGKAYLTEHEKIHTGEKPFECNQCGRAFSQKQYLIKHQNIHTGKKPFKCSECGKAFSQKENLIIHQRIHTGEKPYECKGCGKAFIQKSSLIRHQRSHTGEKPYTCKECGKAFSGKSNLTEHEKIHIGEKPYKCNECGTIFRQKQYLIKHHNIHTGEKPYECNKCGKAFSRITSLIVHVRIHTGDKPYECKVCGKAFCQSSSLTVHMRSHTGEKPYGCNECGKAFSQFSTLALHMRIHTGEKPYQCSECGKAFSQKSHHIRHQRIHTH
T10 sequence (Q8TBF4 whole entry): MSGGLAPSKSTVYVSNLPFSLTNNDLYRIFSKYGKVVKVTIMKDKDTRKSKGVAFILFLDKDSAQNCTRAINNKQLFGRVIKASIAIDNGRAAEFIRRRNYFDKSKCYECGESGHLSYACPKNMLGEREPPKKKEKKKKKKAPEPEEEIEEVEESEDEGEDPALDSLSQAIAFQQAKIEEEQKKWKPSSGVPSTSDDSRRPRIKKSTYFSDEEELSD
T12 sequence (O14965 whole entry): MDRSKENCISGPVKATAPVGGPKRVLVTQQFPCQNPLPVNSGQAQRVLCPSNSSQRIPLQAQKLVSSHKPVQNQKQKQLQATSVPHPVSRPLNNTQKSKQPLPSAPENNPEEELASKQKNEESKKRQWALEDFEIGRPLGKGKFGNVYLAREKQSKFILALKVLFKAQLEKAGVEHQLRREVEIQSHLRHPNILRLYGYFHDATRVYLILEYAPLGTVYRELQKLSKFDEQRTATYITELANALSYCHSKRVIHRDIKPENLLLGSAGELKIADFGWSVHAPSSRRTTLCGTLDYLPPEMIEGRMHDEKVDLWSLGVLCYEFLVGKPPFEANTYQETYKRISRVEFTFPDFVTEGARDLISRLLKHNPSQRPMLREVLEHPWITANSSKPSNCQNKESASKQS
T9 sequence (Q00535 whole entry): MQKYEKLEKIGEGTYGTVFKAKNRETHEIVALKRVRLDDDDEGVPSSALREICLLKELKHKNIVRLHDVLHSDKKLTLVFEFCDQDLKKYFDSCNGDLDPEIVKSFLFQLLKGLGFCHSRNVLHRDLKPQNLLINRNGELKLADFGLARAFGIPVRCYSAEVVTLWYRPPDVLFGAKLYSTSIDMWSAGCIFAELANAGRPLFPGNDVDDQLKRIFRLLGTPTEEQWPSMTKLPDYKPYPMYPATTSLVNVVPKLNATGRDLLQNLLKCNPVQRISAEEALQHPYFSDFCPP

`CN1CCN(c2ccc(Nc3ncc4cc(C#N)c(=O)n(C5CCCC5)c4n3)cc2)CC1` [Compound 1, 8-cyclopentyl-2-((4-(4-methylpiperazin-1-yl)phenyl)amino)-7-oxo-7,8-dihydropyrido[2,3-d]pyrimidine-6-carbonitrile] was tested, and the “cell migration (rate of gap closure)” value (MDA-MB-231 cells [1]) was “inhibited cell migration significantly more than Comparator 1”, the “cell migration (rate of gap closure)” value (Hs578t cells) was “inhibited cell migration significantly more than Comparator 1” and the “Group (CETSA-MS thermal shift)” value (GSK3B [2]) was “Stabilization”. For the same molecule, the “Group (CETSA-MS thermal shift)” value (GSK3A [3]) was “Stabilization”, the “Group (CETSA-MS thermal shift)” value (BMP2K) was “Stabilization” and the “Group (CETSA-MS thermal shift)” value (AAK1 [4]) was “Stabilization”. The “Group (CETSA-MS thermal shift)” value (CHEK1) was “Destabilization”, the “Akt pSer473 levels” value (Akt pSer473) was “decreasing” and the “Group (CETSA-MS thermal shift)” value (GSK3B [5]) was “Stabilization”. The “Group (CETSA-MS thermal shift)” value (FKBP8) was “Stabilization”, the “Group (CETSA-MS thermal shift)” value (GSK3A [6]) was “Stabilization” and the “Group (CETSA-MS thermal shift)” value (SLK) was “Stabilization”. For the same molecule, the “Group (CETSA-MS thermal shift)” value (CDK2) was “Stabilization”, the “Group (CETSA-MS thermal shift)” value (CDK5) was “Stabilization” and the “Group (CETSA-MS thermal shift)” value (ZCRB1) was “Stabilization”. For the same molecule, the “Group (CETSA-MS thermal shift)” value (MAPKAPK5) was “Destabilization”, the “Group (CETSA-MS thermal shift)” value (AURKA) was “Stabilization” and the “Group (CETSA-MS thermal shift)” value (CDC42BPB) was “Destabilization”. For the same molecule, the “Group (CETSA-MS thermal shift)” value (ZNF260) was “Destabilization”, the “Group (CETSA-MS thermal shift)” value (PER3) was “Stabilization” and the “Group (CETSA-MS thermal shift)” value (TBK1) was “Destabilization”. The “Group (CETSA-MS thermal shift)” value (TGFBR2) was “Stabilization”, the “Group (CETSA-MS thermal shift)” value (AAK1 [7]) was “Stabilization” and the “Significance (phosphopeptide target)” value (BRAF) was “significant”. The “vacuolization, Lysotracker Green staining” value (MDA-MB-231 cells [8]) was “extensive cytoplasmic vacuolization that colocalized with Lysotracker green staining”, the “cell death (Cell Tox Glo), compound alone” value (MDA-MB-231 cells [9]) was “induced cell death” and the “effect of bafilomycin A1 cotreatment on cell death (Cell Tox Glo)” value (MDA-MB-231 cells [9]) was “enhanced”.
